Assay results taken from patent US7202081B2, “Simultaneous determination of cell proliferation inhibition activity and toxicity” (Hoffmann-La Roche Inc., priority 2003, dated 2007).
pIC50: −log10 of the molar value. Read-outs that look alike come from different tables or passages of the source.

Test system: Human cord blood CD34+ cells
Test: cells
Format: cell-based
Settings: for proliferation inhibition: CD34 cells, cell number, FIG. 3, concentration range for which the percentage of dead cells is stated; for percentage of dead cells to total cells: human; for IC50: tested 1–1000 ng/ml
Procedure: Human cord blood CD34+ cells were isolated to high purity (>90%) by immunomagnetic cell sorting, aliquoted and frozen in DMSO containing medium. For cell culture setup, frozen CD34+ cells were thawed and 200 cells were seeded in 200 μl complete medium of a well of a 96 well plate. The basal cell culture medium consisted of IMDM-Medium supplemented with 20% human AB serum and antibiotics (pen/strep). The CD34+ cells were activated by addition of following cytokine cocktail: hu-SCF (100 ng/ml), hu-IL6 (10 ng/ml), hu-GM-CSF (100 U/ml), hu-TPO (25 ng/ml) and hu-EPO (5 U/ml). Cultivation was performed in incubators at 37° C., high humidity and 7% CO2.
Two different experimental setup were used: 1) addition of the inhibitor compound prior supplementation of the medium with cytokines to hit preferentially resting cells, and 2) addition of inhibitor compound 4 days after CD34 activation with cytokines to hit preferentially activated cells.
Dependent on the proliferation rate of the CD34+ cells, harvest and analysis of cell number and cytotoxicity was performed after 9–10 d cell culture. The cell number and cytotoxicity was analysed by FACS technique. The number of cells present in the well was counted by comparison with an internal bead standard. A aliquot of 10000 beads was added to each well harboring 200 μl medium volume FLUOSPHERES® polystyrene, 15 μm; Molecular Probes).
A gate, shown as rectangular region, was set onto the standard beads, a distinct number was counted, analysis was stopped and the corresponding volume of medium containing cells was calculated. […] The viable cells appear again in the middle/right position of the forward scatter (FSC) displaying low/no propidium iodide labeling. The few dead cells appear left or in the upper/left position relative to viable cell population. The FACS measurement took an aliqout count of the beads and calculated the number of cells being present within the well, whereas the cytotoxicity, the number of dead cells, was recorded in parallel during this measurement (addition of propidium iodide; final concentration 1 μg/ml). […] At the highest inhibitory and cytotoxic concentration very few cells were present anymore in the viable cell cluster and the majority of cells had been killed as evident by increased PI staining or fragmentation (panel H).
A typical example of the calculation of the number of CD34 cells and percentage of dead cells in a well is shown in FIG. 3 for two cytotoxic compounds, namely 5-fluorouracil and doxorubicine. […] The increase of the percentage of dead cells obtained from the analysis of the PI positive cell fraction (FIG. 2 panels E to H) is shown as solid line.

Row | Structure (SMILES) | proliferation inhibition | pIC50 (Homo sapiens, 240 h, cytokine stimulated CD34 cells, 9–10 d culture, FACS count against bead standard, tested 0.1–100 μmol/l, read-out: IC50 value for the cell number analysis) | percentage of dead cells to total cells | IC50 (Homo sapiens, 240 h, cytokine stimulated CD34 cells, 9–10 d culture, FACS count against bead standard, read-out: IC50 value (cell number) from IC50 calculation program) [ng/mL] | IC50 (Homo sapiens, cytokine stimulated CD34 cells, FIG. 3 legend, read-out: IC50 value for the cell number analysis) [ng/mL]
1 | O=c1[nH]cc(F)c(=O)[nH]1 [5-fluorouracil] | more than 50% | 6.47 | 0-25% | – | –
2 | COc1cccc2c1C(=O)c1c(O)c3c(c(O)c1C2=O)C[C@@](O)(C(=O)CO)C[C@@H]3O[C@H]1C[C@H](N)[C@H](O)[C@H](C)O1 [doxorubicine] | about 80% | – | ~40% | 0.67 | 0.67
